Laboratory results reported in patent publication US7999001B2 (priority 2007, dated 2011).
Entries after “also recorded” stand apart in the source; their conditions may differ.

What was measured:
[1] = tested on: Lassa virus (Josiah strain); format: cell-based
EBOV-GFP = experiment: microbe, parasite or virus in culture; format: cell-based, Ebola Zaire virus
[2] = tested on: MPXV-GFP (recombinant monkeypox virus expressing GFP, Zaire strain); experiment: microbe, parasite or virus in culture; format: cell-based; conditions: Vero C1008, in Primates, 48 h, read-out: Monkey Pox % Inhibition (20 μM)
[3] = tested on: Rift Valley Fever Virus (ZH501 strain); format: cell-based
[4] = tested on: cowpox virus (CPXV, egfpCPV virus); design: species or system mice; conditions: mouse, in vivo
[5] = tested on: EBOV-GFP (recombinant Ebola Zaire virus expressing green fluorescence protein); experiment: microbe, parasite or virus in culture; format: cell-based; conditions: Zaire ebolavirus, Vero C1008, 48 h, read-out: EBOV % Inhibition (20 μM)
[6] = tested on: influenza virus (H1N1 A/Texas strain); format: cell-based
GFP-EBOV = format: cell-based, Ebola Zaire virus

Row | SMILES | antiviral activity toward LV (Lassa virus) [1] | inhibition of Lassa virus replication [1] | IC50 toward EBOV (in words) (EBOV-GFP) | dose dependent antiviral activity toward EBOV-GFP (EBOV-GFP) | inhibition at 20 µM [2] [%] | antiviral activity toward RVFV [3] | mean time to death [4] | inhibition at 20 µM [5] [%] | antiviral activity toward influenza virus [6] | inhibition of influenza virus replication [6] | IC50 (EBOV-GFP; Zaire ebolavirus, Vero C1008, read-out: IC50 (read from graphs of % of control infection)) [µM] | effect of 24 hours pre-treatment of cells versus treatment during and after infection (GFP-EBOV)
1 | Cc1cc(NCCCN(C)C)c2ccc3c(ccc4c(NCCCN(C)C)cc(C)nc43)c2n1 [NSC 306365, N,N′-bis(3-dimethylaminopropyl)-3,9-dimethylquinolino[8,7-h]quinoline-1,7-diamine] | showed antiviral activity; also recorded: dose dependent inhibition | one log; also recorded: inhibit the replication | submicromolar | dose dependent antiviral activity | 99 | showed antiviral activity; also recorded: dose-dependent inhibition; also recorded: dose dependent antiviral activity | increase in the mean time to death; also recorded: prolongs the mean time to death | 99 | showed antiviral activity | half log; also recorded: inhibit the replication | – | –
2 | N=C(N)c1ccc2oc(C=Cc3nc4cc(C(=N)N)ccc4[nH]3)cc2c1 [NSC 369723, 2-(2-(5-(amino(imino)methyl)-1-benzofuran-2-yl)vinyl)-1H-benzimidazole-5-carboximidamide] | not | – | – | dose dependent antiviral activity | – | not | – | 94 | not | – | ~4 | more effective than treatment during and after infection
